US10300143B2, “Compositions for treating cancer and methods for making the same” (THE BRIGHAM AND WOMEN'S HOSPITAL, INC., priority 2012, dated 2019)
“Also recorded” adds a separate entry of the source.

Key:
[1] = test system: PI3K-overexpressing 4306 ovarian cancer cell line; assay: Cell viability (MTS) assay; assay type: cell-based
Protocol: (§1) 4T1 and MDA MB 468 breast cancer cells were cultured in RPMI, 4306 ovarian cancer cells were cultured in DMEM, supplemented with 10% FBS and 1% of Antibiotic-Antimycotic 100× solution. 4×10^3 Cells were seeded into 96-well flat-bottomed plates. Free drug or drug loaded nanoparticles (normalized to equivalent amounts of free drug) were added in triplicate in each 96-well plate and then plates were incubated in 5% CO^2 atmosphere at 37° C. After desired time period of incubation, cells were washed and incubated with 100 μL phenol-red free medium (without FBS) containing 20 μl of the CellTiter 96 Aqueous One Solution reagents (PROMEGA, WI). After 2 hours incubation, the absorbance in each well was recorded.
(§2) 4T1 and MDA MB 468 breast cancer cells were cultured in RPMI, 4306 ovarian cancer cells were cultured in DMEM, supplemented with 10% FBS and 1% of Antibiotic-Antimycotic 100× solution (Invitrogen, 15240-062). 4×10^3 Cells were seeded into 96-well flat-bottomed plates. Free drug or drug loaded nanoparticles (normalized to equivalent amounts of free drug) was added in triplicate in each 96-well plate at appropriate concentrations (1, 10, 100 nM and 1, 10, and […]) and then plates were incubated in 5% CO2 atmosphere at 37° C. After desired time period of incubation, cells were washed and incubated with […] phenol-red free medium (without FBS) containing […] of the CellTiter 96 Aqueous One Solution reagents (Promega, WI). After 2 hours incubation in a 5% CO2 atmosphere at 37° C., the absorbance in each well was recorded at 490 nm using an Epoch plate reader (Biotek instruments, VT). The absorbance reflects the number of surviving cells. Blanks were subtracted from all data and results analyzed using GraphPad Prism™ software (GraphPad, San Diego, Calif.). Each experiment was independently repeated thrice and data shown is mean±SE of n=3.

[2] = test system: 4T1 murine breast cancer cell line; assay: Cell viability (MTS) assay; assay type: cell-based; details: Mus musculus
Protocol: as §1, §2

[3] = test system: MDA-MB-468 human breast cancer cell line; assay: Cell viability (MTS) assay; assay type: cell-based
Protocol: as §1, §2

PI3K = details: cited from earlier work
[4] = cited from earlier work
[5] = Insulin tolerance test using PI103-SNPs; assay type: in vivo, mice (murine 4T1 breast cancer model); details: 5 mg/kg single dose, insulin 0.75 U/kg 1 hour later, glucose 45 min after insulin
Protocol: Random fed mice (murine 4T1 breast cancer model) were injected with a single dose of Empty nanoparticles (Control), Free PI-103 (5 mg/kg) and PI103-SNPs via tail vain injections. Freshly prepared Insulin solution (0.75 U/Kg) in 0.1 ml 0.9% NaCl was injected intraperitoneally to mice 1 hour after the drug administration. The blood glucose levels were measured before and 45 min after the insulin injections using glucometer.

IC50 ([1]; 48 hours): 286 ± 45 nM | IC50 ([1]; 72 hours): 392 ± 49.3 nM | IC50 ([2]; 48 hours): 122 ± 3.15 nM | IC50 ([2]; 72 hours): 67.3 ± 3.4 nM | IC50 ([3]; 48 hours): 445 ± 67 nM | IC50 ([3]; 72 hours): 312 ± 49 nM
SMILES: Oc1cccc(-c2nc(N3CCOCC3)c3oc4ncccc4c3n2)c1 [PI103]
PI3K inhibitory potency (PI3K): excellent potency in the low nanomolar range; also recorded: more potent | aqueous solubility [4]: limited aqueous solubility | blood glucose level after insulin injection [5]: only a minor decrease in blood glucose level
